According to ChEMBL document CHEMBL5036330, “Discovery of 8,9-seco-ent-Kaurane Diterpenoids as Potential Leads for the Treatment of Triple-Negative Breast Cancer” (J Med Chem, 2021):
pIC50: −log10 of the molar value. The source made the active and inactive calls. No cut-off for these calls is given here.

Assays:
MDA-MB-468 [1] = assay: Induction of cell cycle arrest in human MDA-MB-468 cells assessed as accumulation of cells at G2 phase at 2 uM measured after 24 hrs by flow cytometry (reference value: 26.5%); type: functional
MDA-MB-231 [2] = assay: Antiinvasive activity against in human MDA-MB-231 cells assessed as reduction in MMP9 expression measured upto 72 hrs by Western blot analysis; type: functional, cell-based; settings: dose 0.1-0.2 µM, time hrs <=72
MDA-MB-468 [3] = assay: Cytotoxicity against human MDA-MB-468 cells assessed as reduction in cell viability incubated for 96 hrs by MTT method; type: functional, cell-based; settings: MDA-MB-468, 96 h
MDA-MB-468 [4] = assay: Induction of cell cycle arrest in human MDA-MB-468 cells assessed as accumulation of cells at S phase at 1 uM measured after 24 hrs by flow cytometry (reference value: 46.9%); type: functional
MDA-MB-231 [5] = assay: Induction of cell cycle arrest in human MDA-MB-231 cells assessed as accumulation of cells at S phase at 1 uM measured after 24 hrs by flow cytometry (reference value: 32.2%); type: functional
MDA-MB-468 [6] = assay: Induction of cell cycle arrest in human MDA-MB-468 cells assessed as accumulation of cells at G2 phase at 1 uM measured after 24 hrs by flow cytometry (reference value: 26.5%); type: functional
MDA-MB-468 [7] = assay: Antitumor activity against human MDA-MB-468 cells xenografted in NOD/SCID mouse assessed as increase in TUNEL expression in tumor tissue at 5 to 10 mg/kg, ip treated for 33 days by immunohistochemical analysis; type: functional, organism-based; settings: dose 5-10 mg/kg, time 33.0 day
MDA-MB-231 [8] = assay: Induction of autophagy in human MDA-MB-231 cells assessed as increase in LC3-II expression at 1 to 5 uM incubated for 24 hrs by Western blot analysis; type: functional, cell-based; settings: dose 1-5 µM
MDA-MB-468 [9] = assay: Induction of apoptosis in human MDA-MB-468 cells assessed as early apoptotic cells at 2 uM measured after 24 hrs by Annexin V/Propidium iodide stain based Flow cytometry (reference value: 7.98%); type: functional
MDA-MB-468 [10] = assay: Induction of cell cycle arrest in human MDA-MB-468 cells assessed as accumulation of cells at G1 phase at 5 uM measured after 24 hrs by flow cytometry (reference value: 26.6%); type: functional
MDA-MB-468 [11] = assay: Induction of cell cycle arrest in human MDA-MB-468 cells assessed as accumulation of cells at G1 phase at 2 uM measured after 24 hrs by flow cytometry (reference value: 26.6%); type: functional
MDA-MB-231 [12] = assay: Antitumor activity against human MDA-MB-231 cells xenografted in NOD/SCID mouse assessed as increase in TUNEL expression in tumor tissue at 5 to 10 mg/kg, ip treated for 33 days by immunohistochemical analysis; type: functional, organism-based; settings: dose 5-10 mg/kg, time 33.0 day
MDA-MB-231 [13] = assay: Cytotoxicity against Akt1-silenced human MBA-MB-231 cells assessed as cell viability measured after 24 hrs; type: functional, cell-based
HEK293 = assay: Cytotoxicity against HEK-293 cells assessed as reduction in cell viability incubated for 96 hrs by MTT method; type: cell-based; settings: Homo sapiens, HEK293, 96 h
[14] = Toxicity in NOD/SCID mouse assessed as cytotoxicity in heart at 10 mg/kg, ip treated for 33 days by H&E staining analysis; type: organism-based; settings: in vivo, 792 h, time 33 day
MDA-MB-468 [15] = assay: Induction of apoptosis in human MDA-MB-468 cells assessed as late apoptotic cells at 2 uM measured after 24 hrs by Annexin V/Propidium iodide stain based Flow cytometry (reference value: 3.98%); type: functional
MDA-MB-231 [16] = assay: Antiinvasive activity against human MDA-MB-231 cells measured upto 72 hrs by transwell invasion assay relative to control; type: functional, cell-based; settings: dose 0.1-0.2 µM, time hrs <=72
MDA-MB-468 [17] = assay: Induction of cell cycle arrest in human MDA-MB-468 cells assessed as accumulation of cells at S phase at 5 uM measured after 24 hrs by flow cytometry (reference value: 46.9%); type: functional
MDA-MB-468 [18] = assay: Induction of apoptosis in human MDA-MB-468 cells assessed as increase in cleaved caspase 3 at 1 to 5 uM measured after 24 hrs by Western blot analysis; type: functional, cell-based; settings: dose 1-5 µM
[19] = Selectivity index, ratio of IC50 for human LO2 cells to IC50 for human MBA-MB-231 cells; type: functional
MDA-MB-468 [20] = assay: Induction of mitochondrial depolarization in human MDA-MB-468 cells assessed as monomers at 5 uM in dark by JC10 staining based fluorescence microscopy (reference value: 8.4%); type: functional
MDA-MB-468 [21] = assay: Induction of autophagy in human MDA-MB-468 cells assessed as increase in LC3-II expression at 1 to 5 uM incubated for 24 hrs by Western blot analysis; type: functional, cell-based; settings: dose 1-5 µM
MDA-MB-231 [22] = assay: Induction of apoptosis in human MDA-MB-231 cells assessed as decrease in Bcl2/Bax ratio at 1 to 5 uM measured after 24 hrs by Western blot analysis; type: functional, cell-based; settings: dose 1-5 µM
MDA-MB-231 [23] = assay: Induction of cell cycle arrest in human MDA-MB-231 cells assessed as accumulation of cells at G2 phase at 1 uM measured after 24 hrs by flow cytometry (reference value: 20.2%); type: functional
MDA-MB-468 [24] = assay: Induction of cell cycle arrest in human MDA-MB-468 cells assessed as accumulation of cells at G2 phase at 5 uM measured after 24 hrs by flow cytometry (reference value: 26.5%); type: functional
MDA-MB-468 [25] = assay: Inhibition of Akt phosphorylation in human MDA-MB-468 cells measured after 24 hrs by Western blot analysis; type: cell-based; settings: dose 1-5 µM
MDA-MB-231 [26] = assay: Effect on PI3K expression in human MDA-MB-231 cells measured at 1 to 5 uM after 24 hrs by Western blot analysis; type: functional, cell-based; settings: dose 1-5 µM
MDA-MB-231 [27] = assay: Induction of apoptosis in human MDA-MB-231 cells assessed as late apoptotic cells at 1 uM measured after 24 hrs by Annexin V/Propidium iodide stain based Flow cytometry (reference value: 2.78%); type: functional
MDA-MB-468 [28] = assay: Induction of mitochondrial depolarization in human MDA-MB-468 cells assessed as aggregates at 2 uM in dark by JC10 staining based fluorescence microscopy (reference value: 91.6%); type: functional
MDA-MB-468 [29] = assay: Induction of apoptosis in human MDA-MB-468 cells assessed as decrease in Bcl2/Bax ratio at 1 to 5 uM measured after 24 hrs by Western blot analysis; type: functional, cell-based; settings: dose 1-5 µM
MDA-MB-468 [30] = assay: Induction of mitochondrial depolarization in human MDA-MB-468 cells assessed as aggregates at 1 uM in dark by JC10 staining based fluorescence microscopy (reference value: 91.6%); type: functional
MDA-MB-468 [31] = assay: Induction of apoptosis in human MDA-MB-468 cells assessed as late apoptotic cells at 5 uM measured after 24 hrs by Annexin V/Propidium iodide stain based Flow cytometry (reference value: 3.98%); type: functional
MDA-MB-231 [32] = assay: Induction of cell cycle arrest in human MDA-MB-231 cells assessed as accumulation of cells at S phase at 5 uM measured after 24 hrs by flow cytometry (reference value: 32.2%); type: functional
MDA-MB-231 [33] = assay: Induction of cell cycle arrest in human MDA-MB-231 cells assessed as accumulation of cells at G1 phase at 5 uM measured after 24 hrs by flow cytometry (reference value: 47.7%); type: functional
MDA-MB-468 [34] = assay: Effect on PI3K expression in human MDA-MB-468 cells measured at 1 to 5 uM after 24 hrs by Western blot analysis; type: functional, cell-based; settings: dose 1-5 µM

In the case of C=C1C(=O)C2=C[C@H]1CCC(=O)[C@]1(C)[C@H](O)CCC(C)(C)[C@H]1C[C@H]2O, the Activity (MDA-MB-468 [1]) was 58.1%, the Activity (MDA-MB-231 [2]) was “Active” and the pIC50 (MDA-MB-468 [3]) was 7.15. It also gave an Activity (MDA-MB-468 [4]) of 27.9%, an Activity (MDA-MB-231 [5]) of 37% and an Activity (MDA-MB-468 [6]) of 57.9%. For the same compound, the Activity (MDA-MB-468 [7]) was “Active”, the Activity (MDA-MB-231 [8]) was “Active” and the Activity (MDA-MB-468 [9]) was 35.5%. The Activity (MDA-MB-468 [10]) was 16.1%, the Activity (MDA-MB-468 [11]) was 14.3% and the Activity (MDA-MB-231 [12]) was “Active”. The Activity (MDA-MB-231 [13]) was “inactive”, the pIC50 (HEK293) was 5.71 and the Activity [14] was “Non-Toxic”. For the same compound, the Activity (MDA-MB-468 [15]) was 12.5%, the Activity (MDA-MB-231 [16]) was “Dose-Dependent Effect” and the Activity (MDA-MB-468 [17]) was 24.3%. For the same compound, the Activity (MDA-MB-468 [18]) was “Active”, the “Selectivity Index” value [19] was greater than 66.7 and the Activity (MDA-MB-468 [20]) was 86.6%. For the same compound, the Activity (MDA-MB-468 [21]) was “Active”, the Activity (MDA-MB-231 [22]) was “Active” and the Activity (MDA-MB-231 [23]) was 29.2%. For the same compound, the Activity (MDA-MB-468 [24]) was 59.6%, the inhibition (MDA-MB-468 [25]) was “Active” and the Activity (MDA-MB-231 [26]) was “inactive”. The Activity (MDA-MB-231 [27]) was 11.2%, the Activity (MDA-MB-468 [28]) was 21.5% and the Activity (MDA-MB-468 [29]) was “Active”. The Activity (MDA-MB-468 [30]) was 61.6%, the Activity (MDA-MB-468 [31]) was 25.9% and the Activity (MDA-MB-231 [32]) was 35.1%. For the same compound, the Activity (MDA-MB-231 [33]) was 27.5% and the Activity (MDA-MB-468 [34]) was “inactive”.
